Values joined by “and” are separate entries in the source; they are usually repeats but may differ in a detail not shown here. Identical values can stand only once. “Also recorded” adds a separate entry of the source. Like-named read-outs stand apart in the source and are kept apart here.

The text below walks through data of paper PMC8318206 (ACS catalysis, 2020).

For series [1], the target named is T1, P450cam (Pseudomonas putida, UniProt P00183). The series can be described thus: Catalytic activity: NADH oxidation with Pdx and PdR. The format is biochemical. As to conditions: for Rate/Kd (specificity constant): NADH oxidation rate divided by Kd.
The test system of the next series is P450tcu. As to conditions: 5-exo hydroxylation; cited from earlier work.
The target of series [2] is T1, P450cam. The series can be described thus: Steady-state substrate binding titrations. As to conditions: for Reversal of the high-spin spectral change at high ligand concentration: camphor up to 2 mM.
Series [3] addresses T1, P450cam. The series can be described thus: Estimation of koff for the P450cam·camphor complex by metyrapone trapping. The class given is binding.
In series [4] the target is T1, P450cam. The note with it: cited from earlier work.
For series [5], the target named is T1, P450cam. Briefly: Stopped-flow ligand binding kinetics. The note with it: for Dominant binding mechanism: from dependence of eigenvalues on ligand and P450cam concentration; for Binding rate measurable by stopped-flow (ΔA390-A420): dead time 2 ms.
Another series has as its system P450cam·Pdx complex. As to conditions: ref Hollingsworth et al., 46; cited from earlier work.
In series [6] the target is T1, P450cam. The note with it: reported previously; cited from earlier work.
The next series in a line: Solubility in H2O. The format is physicochemical. As to conditions: water.
Where [7] appears, read: 20 mM potassium MOPS (pH 7.4), 200 mM KCl.
Setting [8] is: eigenvalues vs camphor concentration.
The mark [9] stands for this setting: fit to λ = kf + kr·S/(Kd + S), induced fit model.

Turning to d-(+)-camphor, on P450cam [1], the “% relative to camphor (Rate/Kd)” value was found to be 100% and the “Rate/Kd (specificity constant)” value is 7e+06 M⁻¹ s⁻¹. The kcat with P450tcu is ~ 10 s^−1. Moreover, on P450cam [2] (setting [7]), the “Reversal of the high-spin spectral change at high ligand concentration” value was “no reversal of the high-spin spectral change was observed; also recorded: did not show any evidence for reversal”. Also, the “koff (k-1) of the P450cam·camphor complex” value on P450cam [3] (2 μM P450cam, 10 μM camphor mixed with 2 mM metyrapone, KinTek Explorer fit) was 15 s⁻¹. Moreover, the “kon in the minimal kinetic model” value on P450cam [3] (fit with koff = 15 s^−1 and Kd = […] μM) is 1.5e+07 M⁻¹ s⁻¹. In addition, the kcat at P450cam [4] (Km based on O2 as co-substrate) is 55 to 66 s⁻¹. In addition, the “Rate of 5-exo hydroxylation” value at P450cam [4] was more than 10 s⁻¹. Further, the “Specificity constant (rate/Kd)” value on P450cam [4] (reported by others, ref 54) is 340000 M⁻¹ s⁻¹. In addition, the “Specificity constant (rate/Kd)” value on P450cam [4] (reported by others, ref 57) is 1.6e+07 M⁻¹ s⁻¹. For the same compound, the “Rate on the basis of NADH oxidation” value at P450cam [4] (typically reported) is 7 to 14 s⁻¹. At P450cam [5] (6 μM P450cam mixed with 2 μM camphor), the “Eigenvalue λ of binding” value turned out to be 69 ± 2 s⁻¹. Also, on P450cam [5] (setting [8]), the “Intercept of linear regression of eigenvalues (koff, 2-state system)” value turned out to be 35 ± 4 s⁻¹; the “Slope of linear regression of eigenvalues (second-order kon, 2-state system)” value is 2.4 (± 0.3) × 10^6 M^−1 s^−1 and 2.4 (± 0.3) M^−1 s^−1. At P450cam [5] (setting [9]), the “kf (kforward), forward rate constant following camphor binding” value is 112 s⁻¹ and 112 ± 49 s⁻¹; the “kr (kreverse), reverse rate constant” value was 28 s⁻¹ and 28 ± 7 s⁻¹. Further, the Dominant binding mechanism result at P450cam [5] is reported as “induced fit mechanism”. Moreover, the “Increase of the Kd of a P450cam·Pdx complex in the presence of camphor” value with P450cam·Pdx complex is 2 fold.
Take (+)-α-pinene: the Kd on P450cam [6] is 1.1 µM; at P450cam [2] (20 mM potassium MOPS (pH 7.4), 200 mM KCl, absence of Pdx, 23 °C), 3.4 µM. Further, the “Specificity constant (rate/Kd)” value at P450cam [4] (based on NADH oxidation) was 1.3e+06 M⁻¹ s⁻¹; at P450cam [4] (based on product formation), 300000 M⁻¹ s⁻¹. Further, the NADH coupling on P450cam [4] is recorded as 23%. In addition, the Oxidation rate at P450cam [4] (ref Bell et al., 37) was 0.3 s⁻¹. The compound further gave a kobs of binding at P450cam [5] (2 μM P450cam and 30 μM (+)-α-pinene) of 81 ± 3 s⁻¹. Besides, on P450cam [5], the Dominant binding mechanism entry is recorded as “conformational selection”.
For the compound `O=C1CC2CC[C@H]1C2` [norcamphor], the “Rate/Kd (specificity constant)” value on P450cam [1] is 70000 M⁻¹ s⁻¹. Besides, the results for the Kd on P450cam [6] and on P450cam [2] were 350 µM and 250 µM, respectively. The compound further yielded a solubility in the series “Solubility in H2O” not below 50000 µM. Further, the NADH coupling at P450cam [4] was 15%. In addition, the “Binding rate measurable by stopped-flow (ΔA390-A420)” value on P450cam [5] was “changes could not be observed”.
As for `O=C1C2CC3CC(C2)CC1C3` [2-adamantanone], the “% relative to camphor (Rate/Kd)” value at P450cam [1] is listed as 19%. In addition, the “Rate/Kd (specificity constant)” value on P450cam [1] came to 1.3e+06 M⁻¹ s⁻¹. Besides, the Kd at P450cam [6] was 34 µM and 45 µM; on P450cam [2], 2.7 µM. This compound showed a solubility in the series “Solubility in H2O” not below 2000 µM. For the same compound, the Oxidation rate at P450cam [4] (ref White et al., 54) was ~ 1 s^−1; at P450cam [4] (ref White et al., 54, listed as 2-Adamantone), 1 s⁻¹. The “Specificity constant (rate/Kd)” value on P450cam [4] (reported by others, ref 54) was 240000 M⁻¹ s⁻¹. Also, the Exponential of binding was 72 s⁻¹ at P450cam [5] (2 μM 2-adamantanone and 1 μM P450cam); 82 s⁻¹ on P450cam [5] (2 μM 2-adamantanone and 10 μM P450cam). Besides, the kobs of binding on P450cam [5] (2 μM P450cam and 4 μM 2-adamantanone) amounted to 78 ± 2 s⁻¹. In addition, the Dominant binding mechanism result at P450cam [5] was “conformational selection”.
Take `CC(C)(C(=O)c1cccnc1)c1cccnc1` [metyrapone]: the “First-order rate of binding to ligand-free P450cam (k2)” value on P450cam [3] (2 mM metyrapone (final)) is 18.9 s⁻¹.
With `CC1(C)CC(=O)CC(C)(C)C1` [3,3,5,5-tetramethylcyclohexanone], the “% relative to camphor (Rate/Kd)” value at P450cam [1] came out at 0.6%. At P450cam [1], the “Rate/Kd (specificity constant)” value was determined as 40000 M⁻¹ s⁻¹. Moreover, the dissociation constant (Kd) is 3.5 µM on P450cam [6] and 5 µM at P450cam [2]. In the series “Solubility in H2O”, this compound registered a solubility not below 2000 µM. For the same compound, at P450cam [2] (setting [7]), the “Reversal of the high-spin spectral change at high ligand concentration” value is reported as “did reverse the spin state change at higher concentrations”. On P450cam [5], the “Binding rate measurable by stopped-flow (ΔA390-A420)” value was “changes could not be observed”.
